From patent publication EP1140895B1, “THIOPYRAN COMPOUNDS AS INHIBITORS OF MMP” (FUJISAWA PHARMACEUTICAL CO., LTD., priority 1999, dated 2000) come the findings set out here.

This experiment addresses T1, human MMP-13 (Homo sapiens, UniProt P45452).
T1 construct: truncated form of human recombinant MMP-13; purchased Chondrex, USA
The experiment in a line: Inhibitory activity of human MMP-13. The experiment is classed as biochemical. The conditions noted are these: commercial kit, truncated form of human recombinant MMP-13, fluorogenic peptide substrate, 1 hour at 35°C. The procedure: The inhibitory potential of test compounds against human MMP-13 were assayed by using commercial kit (Chondrex, USA) contained truncated form of human recombinant MMP-13 and fluorogenic peptide substrate. Activity of human MMP-13 was determined by monitoring the degradation of fluorogenic peptide substrate after incubation for 1 hour at 35°C and estimated by measuring the fluorescence intensity of degraded peptide substrate at 495 nm (excitation) and 520 nm (emission).
Inhibitory activity of human MMP-13 as mentioned above.

A word on the IC50: it is the midpoint of a concentration-inhibition curve. Take `O=C(CC1(c2ccc(Oc3ccc(Cl)cc3)cc2)CCCCS1(=O)=O)NO` (single isomer, unassigned) [Example 15, (R or S)-(-)-2-[4-(4-chlorophenoxy)phenyl]-3,4,5,6-tetrahydro-N-hydroxy-2H-thiopyran-2-acetamide 1,1-dioxide]: the half-inhibitory concentration (IC50) was 2.2 nM.
